Results published in US20240288345A1, “FLUORESCENT STAINING METHOD” (OSAKA UNIVERSITY, priority 2022, published 2024).
“Also recorded” adds a separate entry of the source. Where two headings read alike, the source gives them in different places.

What was measured:
[1] = Light characteristics: molar extinction coefficient and quantum yield (Table 1); assay type: physicochemical; details: 10 mM sodium phosphate buffer, pH 7.4
Source text: When propionaldehyde was caused to act on DAF-2 (product model number: SK1001-01, Goryo Chemical, Inc.), Compound 16 below was obtained. It was recognized that Compound 16 was fluorescent and its fluorescence intensity increased along with the formation of a benzimidazole ring. […] The formation of a covalent bond with the aldehyde enables detection by fluorescence emission.

[2] = test system: human colonic mucosal tissue; test: Clearing and whole-mount 3D fluorescent staining of human colonic mucosal tissue (Test Example B); details: for Staining property for a sample having a thickness after clearing treatment: summary of Examples and Test Examples; for 3D imaging signal of cleared tissue: CUBIC clearing, periodic acid, 50 μM, 2-3 days, excitation 488 nm
Method: CUBIC-L and CUBIC-R+reagents (T3740 and T3741, Tokyo Chemical Industry Co., Ltd.) were used in tissue clearing. Atissue removal procedure is simply described below.
A formaldehyde-fixed tissue specimen was washed with PBS, and was subsequently immersed in a 50% (v/v) CUBIC-L reagent (mixture containing water and the CUBIC-L reagent at 1:1) overnight. Further, the specimen was immersed in the CUBIC-L reagent at 37° C. for 5 days or 6 days while being gently shaken. Next, each of those specimens was washed with PBS, was immersed in 30% (w/v) of sucrose in the PBS, and was frozen in O.C.T. COMPOUND at −80° C. overnight. […] After having been washed with PBS, the specimen was stained by being gently shaken at room temperature for 2 days or 3 days together with FAM hydrazide, 5-isomer (50 μM), Compound 1 (50 μM), Alexa Fluor 488 hydrazide (50 µM), BDP FL hydrazide ([…]), or fluorescein (50 µM) in PBS containing 0.5% (v/v) of Triton X-100 (12967, Nacalai Tesque, Inc.). When nuclear counterstaining was performed, propidium iodide (PI) (10 μg/mb, P21493, Life Technologies Corporation) or RedDot-2 (1:100, 40061-T, Biotium, Inc.) was also added to the staining solution. After the staining step, the specimen was washed with PBS, and was immersed in a 50% (v/v) CUBIC-R+reagent (mixture containing water and the CUBIC-R+reagent at 1:1) overnight. Further, the specimen was immersed in the CUBIC-R+reagent for 1 day or 2 days while being gently shaken. A cleared tissue specimen thus obtained was subjected to 3D imaging with a confocal fluorescence microscope or a light-sheet fluorescence microscope. A wavelength of 488 nm was applied as the excitation wavelength of each of FAM hydrazide, Compound 1, Alexa Fluor 488 hydrazide, BDP FL hydrazide, and fluorescein, and the fluorescence detection wavelength range of each of these materials was from 490 nm to 562 nm.
A 3D image was obtained by using a confocal microscope (Zeiss LSM880 Confocal/Multiphoton, Carl Zeiss AG) or a light-sheet fluorescence microscope (Zeiss Lightsheet 7, Carl Zeiss AG), All pieces of raw image data were reconstructed and analyzed with Imaris software (version 9.2.1, Bitplane Inc.).
A human colonic mucosal tissue after its formalin fixation, which had been excised into a square about 4 mm on a side, was subjected to clearing treatment and to whole-mount 3D tissue staining through use of FAM hydrazide, Alexa Fluor 488 hydrazide, BDP FL hydrazide, or fluorescein as a stain.

[3] = 100 mM sodium phosphate buffer, pH 7.4, cited from earlier work
[4] = test system: mucus of a goblet cell of colonic mucosa; test: Staining of frozen sliced section of human colonic mucosal tissue (Example 5); details: 8 μm frozen section, 50 μM in PBS, room temperature 1 day, confocal microscope
Source text: A fluorescent probe containing a diaminobenzene structure, such as DAF-2 or Compound 2, was examined for its staining property in the mucus of a goblet cell by using a frozen sliced section of a human colonic mucosal tissue as a positive control analyte. Specifically, a sliced frozen section was cut out of the colonic mucosal tissue after its formalin fixation, and was stained with a group of candidate fluorescent probes and washed with phosphate buffered saline. After that, an image of the section was taken with a confocal fluorescence microscope.
(§1) Specifically, the human colonic mucosal tissue sample after the formalin fixation was sufficiently washed with PBS, and was then immersed in PBS containing 30% (w/v) of sucrose, followed by the production of a frozen block with TISSUE-TEK O. C. T. COMPOUND. The frozen block was sliced into a thickness of 8 μm to produce a frozen section. The frozen section was washed with PBS, and was then stained with a solution, which had been obtained by diluting DAF-2 ([…]) or Compound 2 (50 μM) with PBS, at room temperature for 1 day. After that, the stained product was sufficiently washed with PBS. Then, the washed product was mounted with a water-soluble mounting medium, and an image thereof was taken with a confocal microscope.

[5] = test system: colonic mucosal epithelium; test: Staining combined with CUBIC tissue clearing, 3D imaging (Example 5); design: species or system human; details: CUBIC-L/CUBIC-R+ clearing, periodic acid pretreatment, 50 μM, room temperature 3 days
Method: Specifically, the human colonic mucosal tissue sample after the formalin fixation was sufficiently washed with PBS, and was then immersed in a solution, which had been obtained by diluting a CUBIC-L reagent with distilled water to 1/2, at 37° ° C. while being gently shaken. After that, the sample was immersed in the CUBIC-L reagent, and was treated at 37° C. while being gently shaken. During the treatment, the CUBIC-L reagent was replaced with a new one at an interval of once per 1 to 2 days. After that, the sample was sufficiently washed with PBS, and was then immersed in PBS containing 30% (w/v) of sucrose. After that, a frozen block of the Sample was produced by using TISSUE-TEK O.C.T. COMPOUND. The frozen block was thawed, and was then sufficiently washed with PBS and subjected to pretreatment with a […] aqueous solution of periodic acid, followed by staining with a solution, which had been obtained by diluting DAF-2 (50 μM) with PBS, at room temperature for 3 days. After that, the stained product was sufficiently washed with PBS, and was then immersed in a solution obtained by diluting a CUBIC-R+reagent with distilled water to 1/2, followed by gentle shaking at room temperature. After that, the resultant was immersed in the CUBIC-R+reagent at room temperature for 1 day while being gently shaken. An image of the resultant was taken with a confocal microscope. […]

[6] = Fluorescence spectra before and after addition of propionaldehyde; assay type: physicochemical; details: 0.02 mmol/L in 10 mmol/L sodium phosphate buffer pH 7.4; propionaldehyde 0.10 mmol/L; room temperature 4 days
Method: Propionaldehyde was added to a 10 mmol/L sodium phosphate buffer (pH: 7.4) containing 0. 02 mmol/L of each of DAF-2 and Compound 2 so that its final concentration became 0.10 mmol/L, followed by stirring at room temperature for 4 days. The absorption and fluorescence spectra of each of the solutions before the addition of the aldehyde and after the addition were measured.

[7] = test system: basement membrane of a renal glomerulus; test: Staining of basement membrane of renal glomerulus (Example 5); details: staining as for colonic section
Method: as §1

[8] = test system: goblet cell mucus of human colorectal mucosal tissue; test: Fluorescent staining of frozen sliced specimen of human colonic mucosa (Test Example A); details: for Fluorescent staining signal in goblet cell mucus, sliced section: 10 μm frozen section, 0.5% periodic acid pretreatment, 50 μM overnight
Method: A tissue to be stained was washed with phosphate buffered saline (PBS), was immersed in 30% (w/v) of sucrose in the PBS, and was frozen in O.C.T. COMPOUND (45833, Sakura Finetek) at −80° ° C. overnight. The frozen tissue was cut into a thickness of 10 μm with a cryostat (CM3050 S, Leica Biosystems). The resultant frozen section was washed with PBS three times, and was subjected to pretreatment with a 0.5% solution of periodic acid (HIOA) (86171, MUTO PURE CHEMICALS CO., LTD.) at room temperature for 30 minutes. The section was washed with PBS three times, and was incubated in FAM hydrazide, 5-isomer((50 µM, 24170, BroadPharm, in this description, sometimes referred to as “FAM hydrazide”), Alexa Fluor 488 hydrazide (50 μM, A10436, ThermoFisher Scientific, Inc.), BDP FL hydrazide (50 μM, 11470, Lumiprobe Corporation), or fluorescein (50 µM, FUJIFILM Wako Pure Chemical Corporation) diluted with PBS at room temperature overnight. After that, the section was washed with PBS and an image thereof was obtained with a confocal microscope.
A section of a human colorectal mucosal tissue sampled from the non-tumor region of a surgical specimen of colorectal cancer was subjected to fluorescent staining through use of FAM hydrazide, Alexa Fluor 488 hydrazide, BDP FL hydrazide, or fluorescein serving as a fluorescent skeleton as a stain.

Fluorescence intensity after addition of the aldehyde compared to before [6]	Compound	Staining property for a sample having a thickness after clearing treatment [2]	Staining of mucus of goblet cell of colonic mucosa [4]	3D imaging of colonic mucosal epithelium [5]	Visualization of basement membrane of renal glomerulus [7]	3D imaging signal of cleared tissue [2]	Fluorescent staining signal in goblet cell mucus, sliced section [8]	other results
	CCc1nc2cc(C(=O)O)c(-c3c4ccc(=O)cc-4oc4cc(O)ccc34)cc2[nH]1 [Compound 16]							Quantum yield [1]: 0.85; λabs [1]: 489 nm; Molar extinction coefficient ([1]; in M-1 cm-1 (unit assumed)): 63,000
increase	Nc1cc(C(=O)O)c(-c2c3ccc(=O)cc-3oc3cc(O)ccc23)cc1N [DAF-2]	significantly excellent	clearly stained	enabled the 3D imaging	clearly visualized			Quantum yield [3]: 0.005; λabs [3]: 486 nm; Molar extinction coefficient ([3]; in M-1 cm-1 (unit assumed)): 79,000
	Cc1cc(C)n2c1C=C1C=CC(CCC(=O)NN)=[N+]1[B-]2(F)F.Cl [BDP FL hydrazide]	insufficient				weak	weak	
	Alexa Fluor 488 hydrazide	insufficient				weak	clear positive image; also recorded: clear staining	Fluorescent staining signal without oxidation treatment with HIO4, sliced section ([8]; no HIO4 oxidation): not obtained
increase	Cc1cc(N)c(N)cc1-c1c2ccc(=O)cc-2oc2cc(O)ccc12 [Compound 2]	significantly excellent	clearly stained	enabled the 3D imaging	clearly visualized			
